Experimental data published in patent US12171755B2, “PAPD5 inhibitors and methods of use thereof” (Children's Medical Center Corporation, priority 2017, dated 2024).

Target: T1, PAPD5 (Homo sapiens, UniProt Q8NDF8)
T1 construct: made in house
Test: High-throughput luminescence (KinaseGlo) RNA polyadenylation assay, ATP utilization by recombinant PAPD5
Assay type: biochemical
Conditions: Table 4 (entries of Table 5), ratio of luminescence with inhibitor to DMSO; for Fold-change determined at compound concentration 33 μM: 33 μM compound; for Fold-change determined at compound concentration 100 μM: 100 μM compound, higher = higher inhibition
Procedure, shortened: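 Recombinant PAPD5 polyadenylates an oligonucleotide substrate using ATP, and remaining ATP is read by KinaseGlo luciferase luminescence. Compound was incubated for 2 h at room temperature, then with luciferase for 10 min.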

T1 sequence (Q8NDF8 68-698 isoform Q8NDF8-5): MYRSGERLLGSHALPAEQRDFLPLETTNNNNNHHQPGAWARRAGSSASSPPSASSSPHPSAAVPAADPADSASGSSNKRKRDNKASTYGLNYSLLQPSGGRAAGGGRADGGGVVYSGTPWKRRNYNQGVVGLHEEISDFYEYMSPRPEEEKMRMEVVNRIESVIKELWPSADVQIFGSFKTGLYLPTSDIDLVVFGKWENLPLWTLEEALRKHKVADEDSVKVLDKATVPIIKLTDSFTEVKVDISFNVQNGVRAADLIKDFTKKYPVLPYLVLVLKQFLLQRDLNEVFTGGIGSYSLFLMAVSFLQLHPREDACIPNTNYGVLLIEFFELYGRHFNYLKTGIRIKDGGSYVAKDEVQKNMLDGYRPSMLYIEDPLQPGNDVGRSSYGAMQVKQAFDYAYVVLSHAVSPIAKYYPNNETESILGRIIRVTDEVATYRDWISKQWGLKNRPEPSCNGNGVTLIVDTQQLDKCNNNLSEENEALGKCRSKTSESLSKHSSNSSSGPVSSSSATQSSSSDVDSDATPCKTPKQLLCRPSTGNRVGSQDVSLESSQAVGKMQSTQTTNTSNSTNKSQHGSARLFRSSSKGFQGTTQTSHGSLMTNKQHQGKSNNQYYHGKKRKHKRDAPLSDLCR

Row | SMILES | Fold-change determined at compound concentration 33 μM | Fold-change determined at compound concentration 100 μM | Fold-change determined at compound concentration 10 μM (10 μM compound)
1 | CN(C)S(=O)(=O)c1ccc2c(c1)c(C(=O)n1ccnc1)cn2C [Entry 108, 3-(I-Imidazole-1-carbonyl)-N,N,1-trimethylindole-5-sulfonamide] | 1.256 | 1.547 | –
2 | Cc1c(C(=O)N2CCCC2)oc2c1-c1nn(CC(=O)NCc3ccccc3Br)cc1CC2 [Entry 172, N-[(2-bromophenyl)methyl]-2-[8-methyl-7-(pyrrolidine-1-carbonyl)-4,5-dihydrofuro[2,3-g]indazol-2-yl]acetamide] | 1.296 | 1.616 | –
3 | COc1ccc(-c2coc3c2c(C)cc2oc(=O)c(CC(=O)O)c(C)c23)cc1 [Entry 132, [3-(4-methoxyphenyl)-4,9-dimethyl-7-oxo-7H-furo[2,3-f]chromen-8-yl]acetic acid] | 1.303 | 1.774 | –
4 | Cc1ccc(NC(=O)c2ccc3c(O)c(S(=O)(=O)c4ccc(Cl)cc4)c(=O)[nH]c3c2)cc1 [Entry 95, 3-(4-chlorophenyl)sulfonyl-4-hydroxy-N-(4-methylphenyl)-2-oxo-1H-quinoline-7-carboxamide] | 1.156 | 1.228 | –
5 | CCc1ccc(Cn2c(=O)c3sccc3n3c(=S)[nH]nc23)cc1 [Entry 76, 4-(4-ethylbenzyl)-1-thioxo-2,4-dihydrothieno[2,3-e][1,2,4]triazolo[4,3-a]pyrimidin-5(1H)-one] | 1.7195 | 1.423 | –
6 | Cc1ccc(C)c(NC(=O)c2ccc3c(O)c(S(=O)(=O)c4ccc(Cl)cc4)c(O)nc3c2)c1 [Entry 96, (Z)-3-((4-chlorophenyl)sulfonyl)-N-(2,5-dimethylphenyl)-2,4-dihydroxyquinoline-7-carbimidic acid] | 1.184 | 1.23 | –
7 | CC(C)n1cnc2c(Nc3ccc(C(=O)O)cc3)nc(Cl)nc21 [Entry 47, 4-[(2-chloro-9-propan-2-ylpurin-6-yl)amino]benzoic acid] | 1.095 | 1.393 | –
8 | CC1Oc2ccc(C(=O)CSc3nc(-c4ccc(Cl)cc4)c(C#N)c(=O)[nH]3)cc2NC1=O (centres unmarked) [Entry 233, 4-(4-chlorophenyl)-2-{[2-(2-methyl-3-oxo-3,4-dihydro-2H-1,4-benzoxazin-6-yl)-2-oxoethyl]sulfanyl}-6-oxo-1,6-dihydro-5-pyrimidinecarbonitrile] | 1.256 | 1.859 | –
9 | Cc1oc2ccccc2c1C(=O)CSc1nc(O)c2nc[nH]c2n1 [Entry 164, 2-[(6-hydroxy-9H-purin-2-yl)thio]-1-(2-methyl-1-benzofuran-3-yl)ethanone] | 1.126 | 1.293 | –
10 | NC1CCN(c2nc3c(cc2F)c(=O)c(C(=O)O)cn3-c2ccc(F)cc2F)C1 (centres unmarked) [Entry 62, 7-(3-aminopyrrolidin-1-yl)-1-(2,4-difluorophenyl)-6-fluoro-4-oxo-1,4-dihydro-1,8-naphthyridine-3-carboxylic acid] | 1.298 | 1.41 | –
11 | Cc1csc(-c2cc(S(=O)(=O)Nc3cc(C)nc4ccccc34)c(C)s2)n1 [Entry 29, 2-methyl-N-(2-methylquinolin-4-yl)-5-(4-methyl-1,3-thiazol-2-yl)thiophene-3-sulfonamide] | 1.073 | 1.22 | –
12 | COc1ccc(C2CC(=O)N3CN(C4CCCCC4)CSC3=C2C#N)cc1 (centres unmarked) [Entry 194, 3-cyclohexyl-8-(4-methoxyphenyl)-6-oxo-3,4,7,8-tetrahydro-2H,6H-pyrido[2,1-b][1,3,5]thiadiazine-9-carbonitrile] | 1.323 | 1.613 | –
13 | Cn1[nH]c(-c2cccnc2)c2nc(-c3ccccc3OC(F)F)nc1-2 [Entry 227, 5-[2-(difluoromethoxy)phenyl]-1-methyl-3-pyridin-3-yl-2H-imidazo[4,5-c]pyrazole] | 1.097 | 1.425 | –
14 | Cc1cc(C)c2nc(C)cc(C(=O)O)c2c1 [Entry 85, 2,6,8-trimethylquinoline-4-carboxylic acid] | 1.061 | 1.252 | –
15 | Cc1ccc(C(=O)Nc2c(-c3ccccc3)nc3ccccn23)cc1 [Entry 190, 4-methyl-N-(2-phenylimidazo[1,2-a]pyridin-3-yl)benzamide] | 1.309 | 1.482 | 1.214
16 | Cc1cc(Cl)ccc1NS(=O)(=O)c1cc2[nH]c(=O)c(=O)[nH]c2cc1C [Entry 134, N-(4-chloro-2-methylphenyl)-7-methyl-2,3-dioxo-1,4-dihydroquinoxaline-6-sulfonamide] | 1.124 | 1.298 | –
17 | c1cc(OCCN2CCCCC2)cc(-c2n[nH]c3ccc(-c4ncn[nH]4)cc23)c1 [Entry 160, 3-[3-(2-piperidin-1-ylethoxy)phenyl]-5-(1H-1,2,4-triazol-5-yl)-1H-indazole] | 1.075 | 1.239 | –
18 | CCn1cc(C(=O)O)c(=O)c2cc(F)c(N3CCN(C)CC3)cc21 [Entry 103, 1-ethyl-6-fluoro-7-(4-methylpiperazin-1-yl)-4-oxo-1,4-dihydroquinoline-3-carboxylic acid] | 1.04 | 1.218 | –
19 | CC(C)Cn1cc(NC(=O)NCc2ccccc2)c2ccccc2c1=O [Entry 57a, 1-benzyl-3-[2-(2-methylpropyl)-1-oxoisoquinolin-4-yl]urea] | 1.099 | 1.574 | –
20 | COc1ccc(-c2n[nH]c3nc(-c4ccc(O)c(O)c4)cc(C(=O)O)c23)cc1 [Entry 178, 6-(3,4-dihydroxyphenyl)-3-(4-methoxyphenyl)-1H-pyrazolo[3,4-b]pyridine-4-carboxylic acid] | 1.217 | 1.633 | –
21 | CCOc1cccc2c1N[C@@H](c1ccc(C(=O)O)cc1)[C@H]1CC=C[C@@H]21 [Entry 101, 4-[(3aS,4R,9bR)-6-ethoxy-3a,4,5,9b-tetrahydro-3H-cyclopenta[c]quinolin-4-yl]benzoic acid] | 1.265 | 2.042 | –
22 | O=c1c(S(=O)(=O)c2cccc(F)c2)c[nH]c2c(F)c(Cl)ccc12 [Entry 104, 7-chloro-8-fluoro-3-(3-fluorophenyl)sulfonyl-1H-quinolin-4-one] | 1.048 | 1.235 | –
23 | O=C(O)c1ccccc1C(=O)Nc1ccc(Br)c2cccnc12 [Entry 83, 2-[(5-bromoquinolin-8-yl)carbamoyl]benzoic acid] | 1.041 | 1.203 | –
